Each molecule was assayed against T1, STING in THP1 cells (HAQ allele) (Homo sapiens, UniProt Q86WV6, G230A/H232R/R293Q/R71H) (assay: THP-1 competition assay with STING agonist 2′3′-RR-(A)(A) (IRF-3 luciferase reporter)). Settings: not given.
T1 construct: host or cells: THP-1 dual reporter cells
Format: cell-based
Procedure: The scaffold molecules and STING inhibitory compounds as described herein are assayed for their ability to inhibit the induction of STING dependent IFN-β production by an agonist compound in a competition assay. Relative induction of IRF-3 signaling in THP-1 cells (HAQ allele) was measured after stimulating the cells with a mix of a scaffold molecule (or any putative STING antagonist) titrated against a constant concentration of the STING agonist 2′3′-RR-(A)(A) in PB buffer (50 mM HEPES pH 7.5, 100 mM KCl, 3 mM MgCl2, 0.1 mM DTT, 85 mM sucrose, 0.2% BSA, 1 mM ATP, 0.1 mM GTP).
One day prior to performing the assay, THP-1 dual (Invivogen) reporter cells were plated at 500,000 cells/mL in 200 μL per well in a 96-well plate and differentiated overnight with 3 μg/mL phorbal myristate acetate in RPMI medium 1640 (4.5 g/L D-glucose, 2.383 g/L HEPES, 300 mg/L L-glutamine, 1.5 g/L sodium bicarbonate, 110 mg/L sodium pyruvate, 10% heat-inactivated fetal bovine serum, 1× penicillin/streptomycin, 0.1 mg/mL normocin).
On the day of the assay, the media was removed from the wells and replaced with 150 μL of fresh media. The titrations against 2′ 3′-RR-(A)(A) in a final volume of 100 μL were made as follows: two-fold dilutions (2,000 μM-3.9 μM) of the scaffold molecule into PB buffer containing 100 μM 2′3′-RR-(A)(A) for a final concentration of 50 μM 2′3′-RR-(A)(A). Compounds were tested in biological triplicate.
The cells were then stimulated with 25 μL of each titration for 30 minutes at 37° C. in a CO2 incubator. After stimulating, the cells were washed twice, first with 100 μL and then 150 μL of fresh media. After washing, 150 μL of media was added to each well and the cells were incubated for 17 hours overnight at 37° C. in a CO2 incubator.
To detect IRF-3 signaling, 50 μL of luciferase substrate (Invivogen QUANTI-Luc coelenterazine-based luminescence reagent reconstituted in 25 mL water) was added to 10 μL of supernatant from each well in a 96-well white opaque plate. Luminescence was measured using a SpectraMax M3 plate reader (Molecular Devices) and relative fold-induction was calculated as the values obtained from wells containing both the scaffold molecule and 2′3′-RR-(A)(A) divided by the values obtained from wells containing 2′3′-RR-(A)(A) alone. The average of the relative fold-induction was plotted against the log concentration of the antagonist. Agonist compounds 2′3′-RR-(G)(A) and RR-(A)(A) were run as controls in this assay (see FIGS. 2A and 2B).
The results are provided for control compounds in FIGS. 2A and 2B and scaffold molecules in FIGS. […]: 2′3′-SR-(3′OTBS-A)(2′F-A) (FIG. 3A, Comp. 6a), SR-(2′F-A)(2′OTBS-A) (FIG. 3B, Comp. 18a), RR-(2,6-DAP)(2,6-DAP) (FIG. 3C, Comp. 23), RS-(2,6-DAP)(2,6-DAP) (FIG. 3D, Comp. 23a), (6-O-propargyl-G)(G) (FIG. 3E, Comp. 25), RR-(2′F-ibG)(2′F-ibG) (FIG. 3F, Comp. 32), RR-(2′F-C)(2′F-A) (FIG. 3G, Comp. 37), RS-(2′F-C)(2′F-A) (FIG. 3H, Comp. 37a), 3′2′-RR-(ibG)(BzA) (FIG. 3I, Comp. 42), 3′2′-SS-(G)(A) (FIG. 3J, Comp. 43), dithio-3′2′-(2′OTBS-G)(3′OTBS-A) isomer 1 (FIG. 3K, Comp. 49, isomer 1), dithio-3′2′-(2′OTBS-G)(3′OTBS-A) isomer 2 (FIG. 3L, Comp. 49, isomer 2), Beta-L-SS-(A)(A) (FIG. 3M, Comp. 48), Beta-L-RS-(A)(A) (FIG. 3N, Comp. 48a), and Beta-L-RR-(A)(A) (FIG. 3O, Comp. 48b). Isomer 1 and 2 of Compound 49 are different isomers, and are each one of compound 49a, 49b, 49c or 49d.

T1 sequence (Q86WV6 whole entry R71H/G230A/H232R/R293Q): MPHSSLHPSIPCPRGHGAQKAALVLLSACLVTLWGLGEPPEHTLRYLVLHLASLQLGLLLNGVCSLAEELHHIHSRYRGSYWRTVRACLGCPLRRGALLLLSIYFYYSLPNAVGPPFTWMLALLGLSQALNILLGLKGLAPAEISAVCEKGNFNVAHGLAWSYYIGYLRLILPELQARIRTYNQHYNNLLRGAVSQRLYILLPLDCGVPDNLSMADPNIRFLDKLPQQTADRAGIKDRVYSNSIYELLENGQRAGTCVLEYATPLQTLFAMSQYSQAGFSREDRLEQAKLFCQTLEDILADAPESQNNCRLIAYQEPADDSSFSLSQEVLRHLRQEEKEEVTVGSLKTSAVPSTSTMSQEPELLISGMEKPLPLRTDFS

`CC(C)(C)[Si](C)(C)O[C@H]1[C@H]2O[P@@](=O)(S)OC[C@H]3O[C@@H](n4cnc5c(N)ncnc54)[C@H](F)[C@@H]3O[P@](=O)(S)OC[C@H]1O[C@H]2n1cnc2c(N)ncnc21` [Compound 6a, dithio-[SP, RP]-cyclic-[3′OTBS-A(2′,5′)p-2′F-A(3′,5′)p]] gave an IC50 of 2170 µM.

Same assay, conditions: 50 μM 2′3′-RR-(A)(A), scaffold 2,000 μM-3.9 μM, without digitonin, IRF-3 reporter; read-out: IC50 inhibition of 2′3′-RR-(A)(A) agonist activity without digitonin in THP1 cells (HAQ allele)

First: Nc1ncnc2c1ncn2[C@H]1O[C@H]2CO[P@@](=O)(S)O[C@@H]3[C@H](O)[C@@H](n4cnc5c(N)ncnc54)O[C@H]3CO[P@](=O)(S)O[C@@H]2[C@@H]1O [Compound 48a, Triethylammonium (2S,3S,3aR,5R,7aS,9S,10S,10aR,12S,14aS)-2,9-bis(6-amino-9H-purin-9-yl)-3,10-dihydroxyoctahydro-2H, 7H-difuro[3,2-d: 3′,2′-j][1,3,7,9]tetraoxa[2,8]diphosphacyclododecine-5,12-bis(thiolate) 5,12-dioxide]
Second: Nc1ncnc2c1ncn2[C@H]1O[C@H]2CO[P@](=O)(S)O[C@@H]3[C@H](O)[C@@H](n4cnc5c(N)ncnc54)O[C@H]3CO[P@](=O)(S)O[C@@H]2[C@@H]1O [Compound 48, (2S,3S,3aR,5S,7aS,9S,10S,10aR,12S,14aS)-2,9-bis(6-amino-9H-purin-9-yl)-3,10-dihydroxy-5,12-dimercaptooctahydro-2H,7H-difuro[3,2-d:3′,2′-j][1,3,7,9]tetraoxa[2,8]diphosphacyclododecine 5,12-dioxide]
The IC50 of the first is 2.1-fold lower: 308 µM for the first, 662 µM for the second. The first is the more potent here.

First: CC(C)C(=O)Nc1nc2c(ncn2[C@@H]2O[C@@H]3CO[P@@](=O)(S)O[C@@H]4[C@H](O)[C@@H](CO[P@@](=O)(S)O[C@H]3[C@H]2O)O[C@H]4n2cnc3c(NC(=O)c4ccccc4)ncnc32)c(=O)[nH]1 [Compound 42, dithio-[RP, RP]-cyclic-[ibG(3′,5′)p-BzA(2′,5′)p]]
Second: Nc1nc2c(ncn2[C@@H]2O[C@@H]3CO[P@](=O)(S)O[C@@H]4[C@H](O)[C@@H](CO[P@](=O)(S)O[C@H]3[C@H]2O)O[C@H]4n2cnc3c(N)ncnc32)c(=O)[nH]1 [Compound 43]
The IC50 of the first is 4.2-fold lower: 966 µM for the first, 4040 µM for the second.

Going from `Nc1ncnc2c1ncn2[C@H]1O[C@H]2CO[P@@](=O)(S)O[C@@H]3[C@H](O)[C@@H](n4cnc5c(N)ncnc54)O[C@H]3CO[P@@](=O)(S)O[C@@H]2[C@@H]1O` [Compound 48b, triethylammonium (2S,3S,3R,5R,7aS,9S,10S,10aR,12R,14aS)-2,9-bis(6-amino-9H-purin-9-yl)-3,10-dihydroxyoctahydro-2H,7H-difuro[3,2-d: 3′,2′-j][1,3,7,9]tetraoxa[2,8]diphosphacyclododecine-5,12-bis(thiolate) 5,12-dioxide] to `Nc1nc(N)c2ncn([C@@H]3O[C@@H]4CO[P@@](=O)(S)O[C@H]5[C@@H](O)[C@H](n6cnc7c(N)nc(N)nc76)O[C@@H]5CO[P@@](=O)(S)O[C@H]4[C@H]3O)c2n1` [Compound 23, (2R,3R,3aS,5R,7aR,9R,10R,10aS,12R,14aR)-2,9-bis(2,6-diamino-9H-purin-9-yl)-3,10-dihydroxy-5,12-dimercaptooctahydro-2H,7H-difuro[3,2-d:3′,2′-j][1,3,7,9]tetraoxa[2,8]diphosphacyclododecine 5,12-dioxide], the IC50 falls from 342 µM to 152 µM (2.2-fold). The second is the more potent here.

First: Nc1nc(N)c2ncn([C@@H]3O[C@@H]4CO[P@@](=O)(S)O[C@H]5[C@@H](O)[C@H](n6cnc7c(N)nc(N)nc76)O[C@@H]5CO[P@](=O)(S)O[C@H]4[C@H]3O)c2n1 [Compound 23a, (2R,3R,3aS,5R,7aR,9R,10R,10aS,12S,14aR)-2,9-bis(2,6-diamino-9H-purin-9-yl)-3,10-dihydroxy-5,12-dimercaptooctahydro-2H,7H-difuro[3,2-d:3′,2′-j][1,3,7,9]tetraoxa[2,8]diphosphacyclododecine 5,12-dioxide]
Second: C#CCOc1nc(N)nc2c1ncn2[C@@H]1O[C@@H]2COP(=O)(O)O[C@H]3[C@@H](O)[C@H](n4cnc5c(=O)[nH]c(N)nc54)O[C@@H]3COP(=O)(O)O[C@H]2[C@H]1O [compound 25, 2-amino-9-((2R,3R,3aS,7aR,9R,10R,10aS,14aR)-9-(2-amino-6-(prop-2-yn-1-yloxy)-9H-purin-9-yl)-3,5,10,12-tetrahydroxy-5,12-dioxidooctahydro-2H,7H-difuro[3,2-d:3′,2′-j][1,3,7,9]tetraoxa[2,8]diphosphacyclododecin-2-yl)-1,9-dihydro-6H-purin-6-one]
The IC50 of the first is 33-fold lower: 150 µM for the first, 5010 µM for the second.

Going from `CC(C)C(=O)Nc1nc2c(ncn2[C@@H]2O[C@@H]3CO[P@@](=O)(S)O[C@H]4[C@@H](F)[C@H](n5cnc6c(=O)[nH]c(NC(=O)C(C)C)nc65)O[C@@H]4CO[P@@](=O)(S)O[C@H]3[C@H]2F)c(=O)[nH]1` [Compound 32, N,N′-(((2R,3R,3aR,5R,7aR,9R,10R,10aR,12R,14aR)-3,10-difluoro-5,12-dimercapto-5,12-dioxidooctahydro-2H, 7H-difuro[3,2-d:3′,2′-j][1,3,7,9]tetraoxa[2,8]diphosphacyclododecine-2,9-diyl)bis(6-oxo-6,9-dihydro-1H-purine-9,2-diyl))bis(2-methylpropanamide)] to `Nc1ccn([C@@H]2O[C@@H]3CO[P@](=O)(S)O[C@H]4[C@@H](F)[C@H](n5cnc6c(N)ncnc65)O[C@@H]4CO[P@@](=O)(S)O[C@H]3[C@H]2F)c(=O)n1` [Compound 37a, 4-amino-1-((2R,3R,3aR,5R,7aR,9R,10R, 10aR,12S,14aR)-9-(6-amino-9H-purin-9-yl)-3,10-difluoro-5,12-dimercapto-5,12-dioxidooctahydro-2H,7H-difuro[3,2-d: 3′,2′-j][1,3,7,9]tetraoxa[2,8]diphosphacyclododecin-2-yl)pyrimidin-2(1H)-one], the IC50 rises from 803 µM to 3200 µM (4-fold). The first is the more potent here.

`Nc1ccn([C@@H]2O[C@@H]3CO[P@@](=O)(S)O[C@H]4[C@@H](F)[C@H](n5cnc6c(N)ncnc65)O[C@@H]4CO[P@@](=O)(S)O[C@H]3[C@H]2F)c(=O)n1` [Compound 37, 4-amino-1-((2R,3R,3aR,5R,7aR,9R,10R,10aR,12R,14aR)-9-(6-amino-9H-purin-9-yl) 3,10-difluoro-5,12-dimercapto 5,12-dioxidooctahydro-2H,7H-difuro[3,2-d:3′,2′-j][1,3,7,9]tetraoxa[2,8]diphosphacyclododecin-2-yl)pyrimidin-2(1H)-one] showed an IC50 of 4120 µM.
